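Dose response: 5 concentrations. Exposure: 48 h. Format: 96-well plates. Endpoint: linear interpolation; highest concentration if not reached. The concentration for 50% growth inhibition is given as GI50. TGI: total growth inhibition.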
What was measured:
Assay in all cases: NCI tumour cell line growth inhibition, 48 h
ACHN renal = test system: ACHN renal
CCRF-CEM leukemia = test system: CCRF-CEM leukemia
MDA-MB-435 = test system: MDA-MB-435
UO-31 renal = test system: UO-31 renal
EKVX NSCLC = test system: EKVX NSCLC
SNB-75 CNS = test system: SNB-75 CNS
SR leukemia = test system: SR leukemia
DU-145 prostate = test system: DU-145 prostate
M19-MEL melanoma = test system: M19-MEL melanoma
KM20L2 colon = test system: KM20L2 colon

Row | SMILES | GI50 (ACHN renal) [µM] | TGI (ACHN renal) [µM] | GI50 (CCRF-CEM leukemia) [µM] | TGI (CCRF-CEM leukemia) [µM] | GI50 (MDA-MB-435) [µM] | TGI (MDA-MB-435) [µM] | GI50 (UO-31 renal) [µM] | TGI (UO-31 renal) [µM] | GI50 (EKVX NSCLC) [µM] | TGI (EKVX NSCLC) [µM] | GI50 (SNB-75 CNS) [µM] | TGI (SNB-75 CNS) [µM] | GI50 (SR leukemia) [µM] | TGI (SR leukemia) [µM] | GI50 (DU-145 prostate) [µM] | TGI (DU-145 prostate) [µM] | TGI (M19-MEL melanoma) [µM] | GI50 (M19-MEL melanoma) [µM] | GI50 (KM20L2 colon) [µM] | TGI (KM20L2 colon) [µM]
1 | CCC(CO)Nc1nc(NCc2ccccc2O)c2ncn(C(C)C)c2n1 (configuration not stated) | 1.96 | > 100 | 2.21 | 9.39 | 2.64 | 9.34 | 0.0777 | 4.27 | 15.2 | > 100 | 1.96 | 6.82 | 1.35 | 4.1 | 4.46 | > 100 |  |  |  | 
2 | Cn1c(/C=C(\C#N)c2ccccc2)nc2c(N3CCOCC3)nc(Cl)nc21 | 0.458 | 1.59 | 0.295 | 0.971 | 1.3 | 2.78 | 0.553 | 1.88 | 1.42 | 3.04 | 0.276 | 1.59 | 0.393 | 2.1 | 1.28 | 2.56 |  |  |  | 
3 | N#CC(C(=O)CCC(=O)C(C#N)c1ccccc1)c1ccccc1 (configuration not stated) |  | > 100 |  | > 100 |  |  |  | > 100 |  | > 100 |  | > 100 |  | > 100 |  |  | > 100 |  |  | 
4 | CC(=O)[CH-]C(=O)c1ccccc1.CC(=O)[CH-]C(=O)c1ccccc1.CC1(C)C2CCC1(C)C([O-])C2.CC1(C)C2CCC1(C)C([O-])C2.[Ti+4] | 54.4 | > 100 | 25.1 | > 100 |  |  | 27.8 | 93.8 | 69.6 | > 100 |  |  |  |  |  |  | > 100 | 24.4 | 60 | > 100
5 | CCCCCCCCCCCCCC(=O)CC(=O)c1c(O)cccc1O |  | 74.5 |  | 41.6 |  |  |  | > 100 |  | 68.8 |  | > 100 |  |  |  |  | > 100 |  |  | > 100
6 | Cc1c(-c2c(-c3ccc(F)o3)sc3ncnc(O[C@H](Cc4ccccc4OCc4ccnn4CC(F)(F)F)C(=O)O)c23)ccc(OCCN2CCN(C)CC2)c1Cl | 6.46 | 19 | 0.318 | 9.49 | 1.89 | 6.37 | 6.25 | 18.6 | 4.12 | 14.2 | 1.92 | 5.61 | 0.162 | 2.01 | 2.33 | 5.36 |  |  |  | 
7 | CC(=O)[CH-]C(=O)c1ccccc1.CC(=O)[CH-]C(=O)c1ccccc1.[Eu+3].[OH-].[OH3+] | > 100 | > 100 | > 100 | > 100 |  |  |  |  | > 100 | > 100 | 96.1 | > 100 |  |  |  |  | > 100 | > 100 | > 100 | > 100
8 | C/C(=N/Nc1nc2ccccc2n1C)c1ccccn1 | 0.0136 | 7.7 | 0.0252 |  | 0.229 | 20.7 | 0.0672 | 1.59 | 0.0418 | 13.5 | 0.246 | 8.86 | 0.047 | > 89.7 | 0.141 | 17.7 |  |  |  | 
9 | O=C(CN1CCN(CCCOc2c(-c3ccccc3)oc3ccccc3c2=O)CC1)Nc1ccc(Cl)cc1C(=O)c1ccccc1Cl | 14.8 | > 100 | 0.635 | 12 | 4.13 | 17 | 9.28 | 29.4 | 22.7 | > 100 | 4.39 | 47.1 | 3.14 | 8.17 | 19.8 | > 100 |  |  |  | 
10 | COc1ccc(/C=C/C(=O)c2ccc(SC)cc2)cc1OC | 11.7 | 27.6 | 5.26 | 82.1 | 3.44 | 13.4 | 13.3 | 30.2 | 19.1 | 35.9 | 17 | 37.2 | 3.06 | 42.9 | 13.4 | 30.9 |  |  |  | 
11 | COC(=O)c1c2c(c(C)[n+]([O-])c1C)C(=O)C=C(NCc1ccc(F)c(Cl)c1)C2=O | 0.126 | 1.81 | 0.475 | 4.71 | 0.0515 | 0.173 | 1.05 | 2.37 | 0.592 | 2.27 | 1.69 | 3.09 | 0.381 | 6.73 | 0.566 | 2.07 |  |  |  | 
12 | C=CC(=O)N1CCN(c2nc(=O)n(-c3c(C)ccnc3C(C)C)c3nc(-c4c(O)cccc4F)c(F)cc23)[C@@H](C)C1 | 40.9 | > 100 | 25.7 | 83.1 | 25.1 | 70 | > 62.3 | > 100 | 48.6 | > 100 | 36.1 | > 91.4 | 17.3 | 70.3 | 30.9 | 98.3 |  |  |  | 
13 | O=C(/C=C/c1cccnc1)NCCCCC1CCCN(C(=O)c2ccccc2)C1 (configuration not stated) | > 91 | > 100 | < 0.01 | > 100 | < 0.01 | > 100 | > 62.8 | > 100 | > 63.1 | > 100 |  | > 100 | 0.0617 | > 100 | < 0.01 | > 100 |  |  |  | 
14 | COc1cc(C)c(Cl)cc1C1=NN(c2ccc(S(N)(=O)=O)cc2)C(/C=C/c2ccccc2)C1 (configuration not stated) | 3.2 | 13.3 | 4.34 | > 100 | 2.65 | 8.4 | 2.54 | 12.6 | 2.68 | 22 | 3 | 30.1 | 3.06 | 8.91 | 3.91 | 16.7 |  |  |  | 
15 | CCCc1cc2c(=O)c(C(=O)OC)c[nH]c2cc1N(CC)CC | 17.6 | 60.9 | 85.8 | > 100 | 47.5 | > 100 | 28.5 | > 100 | 16.9 | 42.7 | 18.6 | 46.3 | 39.3 | > 100 | 20.2 | 49.6 |  |  |  | 
